Source: patent US11530180B2, “Alpha-5 beta-1 inhibitors” (The Regents of the University of California, priority 2019, dated 2022)

Target: alpha-5-beta-1 integrin (Homo sapiens (Human), UniProt P05556+P08648)
Test: alpha-5-beta-1 integrin cell adhesion assay (SW480 cells on human plasma fibronectin)
Format: cell-based
Experimental: Cell Adhesion Assay. Evaluation of cell attachment to extracellular matrix proteins was performed as previously described by Yokosaki et al, J. Biol. Chem., 271: (39): 24144-24150 (1996). Briefly, wells of non-tissue culture-treated polystyrene 96-well flat-bottom microtiter plates (Linbro/Titertek, Flow Laboratories, McLean, Va.) were coated by incubation with 100 μl of each substrate in PBS at 37° C. for 1 hour. 96-well flat-bottomed tissue culture plates were coated with human plasma fibronectin for 1 hour at 37° C. After incubation, wells were washed with PBS, then blocked with 1% bovine serum albumin (BSA) for one hour. Control wells were filled with 1% BSA. SW480 cells were detached using 10 mM EDTA and resuspended in serum-free DMEM. For blocking experiments, cells were incubated with 10 μg/ml of the antibody for 15 minutes at 4° C. before plating. The plates were centrifuged at 10 g for 5 minutes before incubation for 1 hour at 37° C. in humidified 5% CO2. Nonadherent cells were removed by centrifugation (top side down) at 10 g for 5 minutes. Attached cells were stained with 0.5% crystal violet, and the wells were washed with PBS. The relative number of cells in each well was evaluated after solubilization in 40 μl of 2% Triton X-100 by measuring absorbance at 595 nm in a microplate reader. All determinations were carried out in triplicate.
Table 2 provides the IC50 (nM) results of an alpha-5-beta-1 integrin cell adhesion assay for the compounds shown. The assay was performed following the procedures set forth in Example 1 and as described by Yokosaki et al, J. Biol. Chem., 271: (39): 24144-24150 (1996).

[1] = cell adhesion assay, SW480 cells, fibronectin-coated plates, Table 1
[2] = alpha-5-beta-1 integrin cell adhesion assay following Example 1, Table 2

Chain of alpha-5-beta-1 integrin (P08648 42-894): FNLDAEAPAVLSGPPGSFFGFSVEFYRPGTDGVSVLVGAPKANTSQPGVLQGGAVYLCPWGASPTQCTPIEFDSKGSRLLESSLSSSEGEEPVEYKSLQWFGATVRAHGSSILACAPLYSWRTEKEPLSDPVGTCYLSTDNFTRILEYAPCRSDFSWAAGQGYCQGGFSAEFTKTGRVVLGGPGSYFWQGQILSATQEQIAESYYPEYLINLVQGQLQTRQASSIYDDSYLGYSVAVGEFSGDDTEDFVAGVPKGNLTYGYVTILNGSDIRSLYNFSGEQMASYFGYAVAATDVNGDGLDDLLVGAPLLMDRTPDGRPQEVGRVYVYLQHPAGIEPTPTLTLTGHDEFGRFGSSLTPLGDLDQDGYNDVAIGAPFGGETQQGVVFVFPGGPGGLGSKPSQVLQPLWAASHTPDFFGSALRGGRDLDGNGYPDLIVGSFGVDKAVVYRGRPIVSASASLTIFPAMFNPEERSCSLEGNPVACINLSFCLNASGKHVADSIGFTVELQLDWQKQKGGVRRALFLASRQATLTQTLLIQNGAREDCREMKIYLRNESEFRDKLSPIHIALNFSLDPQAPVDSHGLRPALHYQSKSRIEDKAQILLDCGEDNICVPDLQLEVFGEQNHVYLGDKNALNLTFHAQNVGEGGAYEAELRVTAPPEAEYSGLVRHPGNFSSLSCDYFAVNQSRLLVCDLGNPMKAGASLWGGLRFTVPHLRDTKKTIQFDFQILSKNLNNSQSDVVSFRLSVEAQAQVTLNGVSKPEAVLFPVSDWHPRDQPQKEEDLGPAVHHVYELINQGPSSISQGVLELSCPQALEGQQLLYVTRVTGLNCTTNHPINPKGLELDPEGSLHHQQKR
Chain of alpha-5-beta-1 integrin (P08648 895-1049 partner): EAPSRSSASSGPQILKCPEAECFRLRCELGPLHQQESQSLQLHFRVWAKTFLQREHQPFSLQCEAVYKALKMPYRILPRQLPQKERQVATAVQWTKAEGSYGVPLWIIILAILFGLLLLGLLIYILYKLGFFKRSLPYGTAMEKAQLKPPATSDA
Chain of alpha-5-beta-1 integrin (P05556 21-798): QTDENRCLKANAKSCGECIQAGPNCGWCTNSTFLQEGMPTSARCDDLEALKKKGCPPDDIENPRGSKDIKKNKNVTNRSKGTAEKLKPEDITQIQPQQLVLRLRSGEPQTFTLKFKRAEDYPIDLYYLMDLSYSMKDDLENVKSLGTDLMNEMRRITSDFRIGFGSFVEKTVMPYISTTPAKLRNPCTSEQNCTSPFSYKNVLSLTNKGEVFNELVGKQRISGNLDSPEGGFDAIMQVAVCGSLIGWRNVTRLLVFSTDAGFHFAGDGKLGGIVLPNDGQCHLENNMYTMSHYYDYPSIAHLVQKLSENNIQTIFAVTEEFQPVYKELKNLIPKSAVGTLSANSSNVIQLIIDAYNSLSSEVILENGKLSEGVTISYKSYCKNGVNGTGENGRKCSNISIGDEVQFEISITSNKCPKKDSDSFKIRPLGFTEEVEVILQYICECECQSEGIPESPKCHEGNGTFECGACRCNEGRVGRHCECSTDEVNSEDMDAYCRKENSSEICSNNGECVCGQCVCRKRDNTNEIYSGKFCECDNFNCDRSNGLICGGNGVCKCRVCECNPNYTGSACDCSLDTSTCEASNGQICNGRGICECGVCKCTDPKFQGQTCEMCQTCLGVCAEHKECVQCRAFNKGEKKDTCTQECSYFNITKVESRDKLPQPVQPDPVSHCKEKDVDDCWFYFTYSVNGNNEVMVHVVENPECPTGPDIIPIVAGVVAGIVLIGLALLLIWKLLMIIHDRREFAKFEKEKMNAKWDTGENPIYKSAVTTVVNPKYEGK

Row | Compound | IC50 [1] [nM] | IC50 [2] [nM]
1 | N=C(N)Nc1ccc2ncn(CCC(=O)NC[C@H](NC(=O)c3c(Cl)cccc3Cl)C(=O)O)c2c1 | < 10000 | 
2 | N=C(N)Nc1cccc(C(=O)NCC(=O)NC[C@H](NC(=O)c2c(Cl)cc(N3CCOCC3)cc2Cl)C(=O)O)c1 | < 100 | 
3 | N#C/N=C(\N)Nc1cccc(C(=O)NCC(=O)NC[C@H](NC(=O)c2c(Cl)cccc2Cl)C(=O)O)c1 [drawing 107] | < 100 | 
4 | N#C/N=C(\N)Nc1cccc(C(=O)NCC(=O)NC[C@@H](NC(=O)c2c(Cl)cccc2Cl)C(=O)O)c1 | < 10000 | 
5 | N#C/N=C(\N)Nc1cccc(C(=O)NCC(=O)NC[C@H](NC(=O)c2c(Cl)cccc2Cl)C(=O)O)c1 [drawing 110] | < 1000 | 
6 | N=C(N)Nc1cccc(C(=O)NCC(=O)NC[C@H](NC(=O)c2c(Cl)cccc2Cl)C(=O)O)c1 | < 100 | 
7 | O=C(CNC(=O)c1cccc(NC2=NCC(F)CN2)c1)NC[C@H](NC(=O)c1c(Cl)cc(N2CCS(=O)(=O)CC2)cc1Cl)C(=O)O (stereo partly drawn) [SU15210-0253-01] |  | < 100
8 | N=C(N)Nc1ccc2c(c1)C(NCC(=O)NC[C@H](NC(=O)c1c(Cl)cccc1Cl)C(=O)O)CCO2 (stereo partly drawn) | < 1000 | 
9 | Cc1cccc(Cl)c1C(=O)N[C@@H](CNC(=O)CNC(=O)c1cccc(NC(=N)N)c1)C(=O)O | < 1000 | 
10 | COC(=O)[C@H](CNC(=O)CNC(=O)c1cc(C#N)cc(N/C(=N/C(=O)OC(C)(C)C)NC(=O)OC(C)(C)C)c1)NC(=O)c1c(Cl)cc(-c2ccccc2)cc1Cl [SU15210-0206-01] |  | < 100
11 | CS(=O)(=O)c1ccc(-c2cc(Cl)c(C(=O)N[C@@H](CNC(=O)CNC(=O)c3cccc(N=C(N)N)c3)C(=O)O)c(Cl)c2)cc1 [SU15210-0110-01, (S)-2-(3,5-dichloro-4′-(methylsulfonyl)biphenyl-4-ylcarboxamido)-3-(2-(3 guanidinobenzamido)acetamido)propanoic acid] |  | < 100

The next lines start with the values.

Row | IC50 [1] [nM] | IC50 [2] [nM] | Compound
12 |  | < 100 | O=C(CNC(=O)c1cccc(NC2=NCC(F)(F)CN2)c1)NC[C@H](NC(=O)c1c(Cl)cc(N2CCOCC2)cc1Cl)C(=O)O [SU15210-0271-01, (S)-2-(2,6-dichloro-4-morpholinobenzamido)-3-(2-(3-(5,5-difluoro-1,4,5,6-tetrahydropyrimidin-2-ylamino)benzamido)acetamido)propanoic acid]
13 |  | < 100 | O=C(CNC(=O)c1cccc(NC2=NCC(F)(F)CN2)c1)NC[C@H](NC(=O)c1c(Cl)cc(-c2ccccc2)cc1Cl)C(=O)O [SU15210-0200, (S)-2-(3,5-dichlorobiphenyl-4-ylcarboxamido)-3-(2-(3-(5,5-difluoro-1,4,5,6-tetrahydropyrimidin-2-ylamino)benzamido)acetamido)propanoic acid]
14 |  | < 100 | O=C(CNC(=O)c1cccc(NC2=NCC(F)(F)CN2)c1)NC[C@H](NC(=O)c1c(Cl)cc(-c2ccc3cn[nH]c3c2)cc1Cl)C(=O)O [SU15210-0272-01, (S)-2-(2,6-dichloro-4-(1H-indazol-6-yl)benzamido)-3-(2-(3-(5,5-difluoro-1,4,5,6-tetrahydropyrimidin-2-ylamino)benzamido)acetamido)propanoic acid]
15 |  | 101 to 1000 | CN(CC(=O)NC[C@H](NC(=O)c1c(Cl)cc(-c2ccccc2)cc1Cl)C(=O)O)C(=O)c1cccc(NC(=N)N)c1 [SU15210-0202-01, (S)-2-(3,5-dichlorobiphenyl-4-ylcarboxamido)-3-(2-(3 guanidino-N-methylbenzamido)acetamido)propanoic acid]
16 | < 100 |  | O=C(CNC(=O)c1cccc(NC2=NCCCN2)c1)NC[C@H](NC(=O)c1c(Cl)cccc1Cl)C(=O)O
17 |  | 101 to 1000 | O=C(CCc1ccc2c(n1)NCCC2)NCC(=O)NC[C@H](NC(=O)c1c(Cl)cc(-c2ccccc2)cc1Cl)C(=O)O [SU15210-0151-01, (S)-2-(3,5-dichloro-[1,1′-biphenyl]-4-carboxamido)-3-(2-(3-(5,6,7,8-tetrahydro-1,8-naphthyridin-2-yl)propanamido)acetamido)propanoic acid]
18 |  | < 100 | O=C(CNC(=O)c1cccc(NC2=NCCCN2)c1)NC[C@H](NC(=O)c1c(Cl)cc(-c2ccccc2)cc1Cl)C(=O)O [SU15210-0147-01, (S)-2-(3,5-dichlorobiphenyl-4-ylcarboxamido)-3-(2-(3-(1,4,5,6-tetrahydropyrimidin-2-ylamino)benzamido)acetamido)propanoic acid]
19 | < 100 |  | N=C(N)Nc1cccc(C(=O)NCC(=O)NC[C@H](NC(=O)c2c(Cl)cc(-c3ccccc3)cc2Cl)C(=O)O)c1
20 |  | < 100 | O=C(CNC(=O)c1cccc(NC2=NCC(F)CN2)c1)NC[C@H](NC(=O)c1c(Cl)cc(-c2ccc3cn[nH]c3c2)cc1Cl)C(=O)O (stereo partly drawn) [SU15210-0241-01, (2S)-2-(2,6-dichloro-4-(1H-indazol-6-yl)benzamido)-3-(2-(3-(5-fluoro-1,4,5,6-tetrahydropyrimidin-2-ylamino)benzamido)acetamido)propanoic acid]
21 |  | 101 to 1000 | C[C@@H](NC(=O)c1cccc(NC2=NCC(F)CN2)c1)C(=O)NC[C@H](NC(=O)c1c(Cl)cc(-c2ccccc2)cc1Cl)C(=O)O (stereo partly drawn) [SU15210-0254, (2S)-2-[(2,6-dichloro-4-phenyl-benzoyl)amino]-3-[[(2R)-2-[[3-[(5-fluoro-1,4,5,6-tetrahydropyrimidin-2-yl)amino]benzoyl]amino]propanoyl]amino]propanoic acid]
22 |  | < 100 | O=C(CNC(=O)c1cccc(NC2=NCCCS2)c1)NC[C@H](NC(=O)c1c(Cl)cc(-c2ccccc2)cc1Cl)C(=O)O [SU15210-0230-01]
23 |  | 1000 to 10000 | CNc1cccc(CCC(=O)NCC(=O)NC[C@H](NC(=O)c2c(Cl)cc(-c3ccccc3)cc2Cl)C(=O)O)n1 [SU15210-0152-01, (S)-2-(3,5-dichlorobiphenyl-4-ylcarboxamido)-3-(2-(3-(6-(methylamino)pyridin-2-yl)propanamido)acetamido)propanoic acid]
24 | < 10000 |  | Cc1ccnc(Nc2cccc(C(=O)NCC(=O)NC[C@H](NC(=O)c3c(Cl)cccc3Cl)C(=O)O)c2)c1
25 |  | 101 to 1000 | C/N=C(\NC)Nc1cccc(C(=O)NCC(=O)NC[C@H](NC(=O)c2c(Cl)cc(-c3ccccc3)cc2Cl)C(=O)O)c1 [SU15210-0193-01, (S,E)-2-(3,5-dichlorobiphenyl-4-ylcarboxamido)-3-(2-(3-(2,3-dimethylguanidino)benzamido)acetamido)propanoic acid]
26 | < 50000 |  | COc1ccc(Nc2cccc(C(=O)NCC(=O)NC[C@H](NC(=O)c3c(Cl)cccc3Cl)C(=O)O)c2)nc1
27 |  | < 100 | O=C(CNC(=O)c1cccc(NC2=NCC(F)CN2)c1)NC[C@H](NC(=O)c1c(Cl)cc(N2CCOCC2)cc1Cl)C(=O)O (stereo partly drawn) [SU15210-0248-01, (2 S)-2-(2,6-dichloro-4-morpholinobenzamido)-3-(2-(3-(5-fluoro-1,4,5,6-tetrahydropyrimidin-2-ylamino)benzamido)acetamido)propanoic acid]
